Assay results: patent US8778974B2, “Trisubstituted 1,2,4 triazoles” (Janssen Pharmaceutica NV, priority 2008, dated 2014)

Target: T1, hα7-wt nAChR-expressing GH4Cl cells (Homo sapiens, UniProt P36544)
T1 construct: expressed in transfected cells
Assay: Patch-clamp current recording (whole-cell), potentiation of choline 1 mM response, PAM type
Assay type: cell-based
Set-up: key to Pam type: Type 0 compounds minimally enhance the effect size of the current elicited by 1 mM choline.; Type 1 compounds enhance the effect size of the current elicited by 1 mM choline but minimally alter the kinetics of the receptor.; Type 2 compounds enhance the effect size of the current elicited by 1 mM choline while reducing the rate and/or the extent of desensitization.; Type 3 compounds enhance the effect size of the current elicited by 1 mM choline. When tested at higher concentrations up to 10 μM they completely inhibit desensitization, in particular a 1 mM choline application of 250 milliseconds.; Type 4 compounds allow for an initial desensitization of the receptor followed by a re-opening of the receptor during agonist application
Details: for EC50: according to Ex. D.2, "<5" = no top plateau reached at maximal concentration, read-out: Potency (pEC50) (converted); for Pam type: patch-clamp current recording, 1 mM choline
Method: The compounds of the present invention are classified as type 1-4, based on qualitative kinetic properties, as determined by whole-cell voltage-clamp recordings. This classification is based on the effect of an α7 PAM compound, as described hereinbefore, on the signal elicited by an agonist application. In particular, said agonist is choline at a concentration of 1 mM. In a preferred experimental setting, said α7 PAM compound and choline are simultaneously applied to the cell, as described hereinafter. Desensitization is defined as the closure of the receptor upon activation during the application of the agonist in whole-cell voltage-clamp electrophysiology measurements seen as the reduction of the […] current after initial activation by the agonist.
The definition of the PAM types 1-4 is described hereinafter: • Type 0 compounds minimally enhance the effect size of the current elicited by 1 mM choline. • Type 1 compounds enhance the effect size of the current elicited by 1 mM choline but minimally alter the kinetics of the receptor. In particular, the rate and the extent of desensitization, elicited by the agonist, is not affected. The compound-modulated response to 1 mM choline, therefore, is a close to linear scaling of the 1 mM choline response in absence of the α7 PAM compound. • Type 2 compounds enhance the effect size of the current elicited by 1 mM choline while reducing the rate and/or the extent of desensitization. • Type 3 compounds enhance the effect size of the current elicited by 1 mM choline. […] At low-potency concentrations of the α7 PAM compound, the agonist-induced activation, which is followed by desensitization, can still be separated from the compound-induced re-opening as an initial inward current-maximum. At higher potency concentrations of the α7 PAM compound, the re-opening occurs faster than the closure due to desensitization so that the initial current-maximum disappears.
Patch-clamp Current Recording
Patch-clamp recording from mammalian cells has provided a powerful means of assessing the function of membrane-bound proteins thought to be subunits of ligand-gated ion channels. Activation of such proteins by endogenous or exogenous ligands cause opening of a pore associated with the receptor through which ions flow down their electrochemical gradient. In the case of the hα7-wt nAChR-expressing GH4Cl recombinant cell line the preferential permeability to calcium of this receptor means that calcium flows into the cell upon activation by ACh, choline and other nicotinic ligands giving rise to a calcium current. Since this receptor rapidly desensitizes in the presence of agonist it is important an application system is used which is capable of very rapid switching of solutions (<100 ms) to prevent partial or full desensitisation of receptor responses coincident with the time of agonist application. Consequently, a second convenient technique to assess the enhancement of nicotinic efficacy is patch-clamp recording from hα7-wt nAChR-expressing GH4Cl cells coupled with a rapid-application system.
• a) Assay buffers • The external recording solution consisted of 152 mM NaCl, 5 mM KCl, 1 mM MgCl2, 1 mM Calcium, 10 mM HEPES; pH 7.3. The internal recording solution consisted of 140 mM CsCl, 10 mM HEPES, 10 mM EGTA, 1 mM MgCl2, pH 7.3. • b) Patch-clamp recording was carried out using a Patch-clamp amplifier (Multiclamp 700A, Axon Instruments, Calif., USA). hα7-wt nAChR-expressing GH4Cl cells were patch-clamp in the whole cell configuration (Hamill et al, 1981) with a borosilicate glass electrode of 1.5-3 MΩ tip resistance when filled with the internal recording solution. Recordings were made on cells with membrane resistance >500 MΩ and more preferably 1GΩ and series resistance <15 MΩ with at least 60% series resistance compensation. […]

T1 sequence (P36544 23-502): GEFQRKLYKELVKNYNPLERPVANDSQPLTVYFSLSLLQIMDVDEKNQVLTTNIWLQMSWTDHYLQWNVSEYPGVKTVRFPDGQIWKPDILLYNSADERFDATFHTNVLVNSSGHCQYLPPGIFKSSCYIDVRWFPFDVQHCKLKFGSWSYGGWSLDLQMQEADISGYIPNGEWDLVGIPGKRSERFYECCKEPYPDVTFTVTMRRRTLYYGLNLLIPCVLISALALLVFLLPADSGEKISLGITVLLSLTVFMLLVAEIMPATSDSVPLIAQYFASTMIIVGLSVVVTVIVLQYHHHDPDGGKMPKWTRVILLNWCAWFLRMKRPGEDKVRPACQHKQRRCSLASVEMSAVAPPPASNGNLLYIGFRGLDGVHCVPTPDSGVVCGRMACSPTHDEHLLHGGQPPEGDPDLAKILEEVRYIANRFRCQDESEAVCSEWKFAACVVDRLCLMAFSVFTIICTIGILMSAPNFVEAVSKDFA

SMILES | EC50 | Pam type
CN(C)C(=O)CCc1nc(Nc2ccc3c(c2)OC(F)(F)O3)nn1-c1ccc2c(c1)OCCO2 [E176] | 0.0269 µM | 4
O=C(CCc1nc(Nc2cccc(OC(F)(F)F)c2)nn1-c1cccnc1)N1CCCC1 [E78] | 0.309 µM | –
CN(C)C(=O)CCc1nc(Nc2cccc(OC(F)(F)F)c2)nn1-c1cccnc1 [E71] | 0.617 µM | 4
CNC(=O)CCc1nc(Nc2ccc(F)c(F)c2)nn1-c1ccncc1 [E52] | > 30.2 µM | –
CN(C)C(=O)CCc1nc(Nc2cccc(OC(F)(F)F)c2)nn1-c1ccncc1 [E69] | 0.324 µM | –
CN(C)C(=O)CCc1nc(Nc2ccc(F)c(C(F)(F)F)c2)nn1-c1cccnc1 [E72] | 0.339 µM | –
COc1ccc(-n2nc(Nc3ccc(F)c(F)c3)nc2CCC(=O)N(C)C)cc1 [E63] | 0.0603 µM | 4
Cc1cc(-n2nc(Nc3cc(F)c(F)c(F)c3)nc2CCC(=O)N(C)C)cc(C)n1 [E264] | ~0.0288 µM | –
CN(C)C(=O)CCc1nc(Nc2cccc(OC(F)(F)F)c2)nn1-c1ccc2c(c1)OCCO2 [E170] | 0.0398 µM | 4
CNC(=O)Cc1nc(Nc2ccc(F)c(F)c2)nn1-c1ccc2c(c1)OCCO2 [E36] | 1.74 µM | 4
COc1ccc(-n2nc(Nc3ccc4c(c3)OC(F)(F)O4)nc2CCC(=O)N(C)C)cc1 [E178] | 0.0363 µM | 4
CC[C@H](O)Cc1nc(Nc2ccc(OC)cc2)nn1-c1cc(C)nc(C)c1 [E203] | 1.35 µM | 2
CC[C@H](O)Cc1nc(Nc2cccc(C(F)(F)F)c2)nn1-c1ccnc(C)c1 [E204] | 0.562 µM | 0
CN(C)C(=O)CCc1nc(Nc2cc(F)c(F)c(Br)c2)nn1-c1ccc2c(c1)OCCO2 [E151] | 0.038 µM | 4
CN(C)C(=O)CCc1nc(Nc2ccc(F)c(C(F)(F)F)c2)nn1-c1ccncc1 [E68] | 0.105 µM | –
COc1ccc(-n2nc(Nc3ccc(F)c(C(F)(F)F)c3)nc2CCC(=O)N(C)C)cc1OC [E65] | 0.0708 µM | 4
CN(C)C(=O)CCc1nc(Nc2ccc(F)c(F)c2)nn1-c1ccc(OC(F)(F)F)cc1 [E66] | 0.24 µM | 4
CN(C)C(=O)CCc1nc(Nc2ccc(F)c(F)c2)nn1-c1ccc2c(c1)OCCO2 [E3, 3-[(3,4-Difluorophenyl)amino]-1-(2,3-dihydro-1,4-benzodioxin-6-yl)-N,N-dimethyl-1H-1,2,4-triazole-5-propanamide] | 0.0437 µM | 4
CNC(=O)CCc1nc(Nc2ccc(F)c(F)c2)nn1-c1ccc(OC)cc1 [E43] | 2 µM | 2
CC[C@H](O)Cc1nc(Nc2ccc(F)c(F)c2F)nn1-c1cc(C)nc(C)c1 [E127, (alphaS)-1-(2,6-dimethyl-4-pyridinyl)-alpha-ethyl-3-[(2,3,4-trifluorophenyl)amino]-1H-1,2,4-triazole-5-ethanol] | 0.269 µM | 2
CNC(=O)CCc1nc(Nc2ccc(F)c(F)c2)nn1-c1ccc2c(c1)OCCO2 [E2, 3-[(3,4-Difluorophenyl)amino]-1-(2,3-dihydro-1,4-benzodioxin-6-yl)-N-methyl-1H-1,2,4-triazole-5-propanamide] | 1.02 µM | 3
CCOC(=O)CCc1nc(Nc2ccc(F)c(C(F)(F)F)c2)nn1-c1ccc2c(c1)OCCO2 [E115] | 0.158 µM | –
CN(C)C(=O)CCc1nc(Nc2ccc(F)c(C(F)(F)F)c2)nn1-c1ccc2c(c1)OCCO2 [E77] | 0.0398 µM | 4

SMILES | EC50 | Pam type
CCOC(=O)CCc1nc(Nc2cccc(OC(F)(F)F)c2)nn1-c1cccnc1 [E108] | 1.35 µM | –
CN(C)C(=O)CCc1nc(Nc2ccc(F)c(F)c2)nn1-c1ccncc1 [E67] | 0.447 µM | 4
CNC(=O)CCc1nc(Nc2ccc(F)c(C(F)(F)F)c2)nn1-c1ccc(OC)c(OC)c1 [E46] | 1.02 µM | –
Cc1cc(-n2nc(Nc3ccc(F)c(C(F)(F)F)c3)nc2CCO)ccn1 [E16] | 0.525 µM | –
CC[C@H](O)Cc1nc(Nc2cccc(Cl)c2F)nn1-c1cc(C)nc(C)c1 [E172] | 0.302 µM | 2
CNC(=O)CCc1nc(Nc2ccc(F)c(C(F)(F)F)c2)nn1-c1ccc2c(c1)OCCO2 [E55] | 0.525 µM | 4
CCNC(=O)Cc1nc(Nc2ccc3c(c2)OC(F)(F)O3)nn1-c1cc(C)ncc1C [E163] | 2.51 µM | 4
Cc1ccc(-n2nc(Nc3ccc4c(c3)OC(F)(F)O4)nc2CCC(=O)N(C)C)cn1 [E117] | 0.191 µM | 4
CC[C@H](O)Cc1nc(Nc2ccc(F)c(F)c2F)nn1-c1ccnc(C)c1 [E130, (alphaS)-alpha-ethyl-1-(2-methyl-4-pyridinyl)-3-[(2,3,4-trifluorophenyl)amino]-1H-1,2,4-triazole-5-ethanol] | 0.269 µM | 2
CC[C@H](O)Cc1nc(Nc2cc(Cl)cc(OC)c2)nn1-c1cc(C)nc(C)c1 [E205, (alphaS)-3-[(3-chloro-5-methoxyphenyl)amino]-1-(2,6-dimethyl-4-pyridinyl)-alpha-ethyl-1H-1,2,4-triazole-5-ethanol] | 0.155 µM | 2
CC[C@H](O)Cc1nc(Nc2cc(F)cc(OC)c2)nn1-c1cc(C)nc(C)c1 [E190, (alphaS)-1-(2,6-dimethyl-4-pyridinyl)-alpha-ethyl-3-[(3-fluoro-5-methoxyphenyl)amino]-1H-1,2,4-triazole-5-ethanol] | 0.398 µM | 2
CNC(=O)Cc1nc(Nc2ccc(F)c(F)c2F)nn1-c1cc(C)nc(C)c1 [E209] | 0.724 µM | 2
CNC(=O)CCc1nc(Nc2ccc(F)c(C(F)(F)F)c2)nn1-c1ccc(OC)cc1 [E44] | 0.661 µM | –
CNC(=O)CCc1nc(Nc2ccc(F)c(F)c2)nn1-c1cccnc1 [E48] | > 10 µM | –
CC[C@H](O)Cc1nc(Nc2cc(F)cc(OC)c2)nn1-c1ccnc(C)c1 [E186, (alphaS)-alpha-ethyl-3-[(3-fluoro-5-methoxyphenyl)amino]-1-(2-methyl-4-pyridinyl)-1H-1,2,4-triazole-5-ethanol] | 1.02 µM | 4
O=C(CCc1nc(Nc2cccc(OC(F)(F)F)c2)nn1-c1cccnc1)N1CCC(O)C1 (stereo not shown) [E79] | 1.26 µM | –
CC[C@H](O)Cc1nc(Nc2cc(Cl)cc(OC)c2)nn1-c1ccnc(C)c1 [E206] | 0.17 µM | 4
Cc1ncccc1-n1nc(Nc2cccc(OC(F)(F)F)c2)nc1CCC(=O)N(C)C [E5, N,N-Dimethyl-1-(2-methyl-3-pyridinyl)-3-[[3-(trifluoromethoxy)phenyl]amino]-1H-1,2,4-triazole-5-propanamide] | 1.17 µM | 4
CCNc1cc(-n2nc(Nc3ccc(F)c(F)c3)nc2C[C@@H](O)CC)ccn1 [E136] | 0.155 µM | 3
COc1ccc(-n2nc(Nc3ccc(F)c(C(F)(F)F)c3)nc2CCC(=O)N(C)C)cc1 [E62] | 0.0302 µM | 4
COc1ccc(-n2nc(Nc3cc(F)c(F)c(Br)c3)nc2CCC(=O)N(C)C)cc1 [E155] | 0.0288 µM | 1
Cc1cc(-n2nc(Nc3ccc(F)c(F)c3)nc2CC(=O)NC2CCC2)cc(C)n1 [E169] | 0.295 µM | 2
Cc1cc(-n2nc(Nc3cccc(Cl)c3F)nc2CC(=O)NCC2CC2)cc(C)n1 [E154] | 0.219 µM | 2
